Assay results published in patent publication US20260070895A1, “CRYSTALLINE FORMS” (QUIMATRYX, S.L., priority 2022, published 2026).

Assays:
[1] = tested on: mantle cell lymphoma, lung cancer and pancreatic cancer xenograft; conditions: lung cancer and pancreatic cancer xenograft murine models; cited from earlier work
HDAC 6 = target: T1, HDAC 6 (Homo sapiens, UniProt Q9UBN7); conditions: cited from earlier work
T1 sequence (Q9UBN7 1-1215): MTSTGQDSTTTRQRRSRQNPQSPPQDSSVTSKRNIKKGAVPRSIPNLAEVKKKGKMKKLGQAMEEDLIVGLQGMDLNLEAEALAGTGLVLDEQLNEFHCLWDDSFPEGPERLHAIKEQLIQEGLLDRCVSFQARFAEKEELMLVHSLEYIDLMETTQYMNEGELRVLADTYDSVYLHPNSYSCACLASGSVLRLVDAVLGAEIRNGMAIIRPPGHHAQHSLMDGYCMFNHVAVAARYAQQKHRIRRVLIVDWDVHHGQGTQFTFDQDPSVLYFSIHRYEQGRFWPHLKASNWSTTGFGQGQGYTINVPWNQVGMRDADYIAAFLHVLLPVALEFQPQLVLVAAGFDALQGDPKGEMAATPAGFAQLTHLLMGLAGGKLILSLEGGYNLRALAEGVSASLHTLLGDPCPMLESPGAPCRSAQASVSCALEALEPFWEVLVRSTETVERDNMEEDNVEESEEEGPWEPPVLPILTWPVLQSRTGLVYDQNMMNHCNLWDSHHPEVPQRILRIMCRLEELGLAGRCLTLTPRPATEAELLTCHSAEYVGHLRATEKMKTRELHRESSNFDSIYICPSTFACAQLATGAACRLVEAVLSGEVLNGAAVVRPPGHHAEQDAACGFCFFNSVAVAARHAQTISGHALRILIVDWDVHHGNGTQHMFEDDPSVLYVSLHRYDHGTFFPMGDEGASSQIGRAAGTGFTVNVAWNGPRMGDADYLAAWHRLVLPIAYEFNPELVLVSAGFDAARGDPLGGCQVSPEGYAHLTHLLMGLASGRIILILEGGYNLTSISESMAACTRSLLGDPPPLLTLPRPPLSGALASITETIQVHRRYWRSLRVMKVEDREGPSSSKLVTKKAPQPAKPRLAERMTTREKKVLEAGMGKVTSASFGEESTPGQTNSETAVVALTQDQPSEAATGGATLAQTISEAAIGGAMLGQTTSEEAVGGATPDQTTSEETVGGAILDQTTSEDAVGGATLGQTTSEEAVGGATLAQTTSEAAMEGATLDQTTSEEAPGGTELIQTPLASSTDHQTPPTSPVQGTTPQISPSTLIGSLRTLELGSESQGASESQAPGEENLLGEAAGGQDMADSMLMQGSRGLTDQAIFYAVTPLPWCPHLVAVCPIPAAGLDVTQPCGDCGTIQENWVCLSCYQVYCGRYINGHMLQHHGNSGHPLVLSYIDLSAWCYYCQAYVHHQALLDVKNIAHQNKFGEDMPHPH

[2] = tested on: multiple sclerosis mice models; conditions: two different multiple sclerosis mice models; cited from earlier work
[3] = Pharmacokinetic properties; format: in vivo; conditions: compared with other histone deacetylase inhibitors
[4] = Genotoxicity (clastogenicity, aneugenicity); conditions: unlike other histone deacetylase inhibitors
[5] = Solubility and stability of QTX125 in aqueous solution (background); format: physicochemical
[6] = hydroxamic acids such as QTX125; cited from earlier work
[7] = Photostability at solid state (chemical purity by HPLC after illumination); format: physicochemical; conditions: solid-state; for degradation (in words): up to 171 hours
Description: (§1) The method for determining purity by HPLC—used throughout these examples—used the following parameters:
(§2) The photostability of novel crystalline forms of QTX125 was assessed at solid state and in solution. Where ‘forced illumination’ conditions were used, samples were illuminated at 12 Klux/hour and 2.8 UV W/m^2/hour. Samples were stored at a temperature of 30° C. Following incubation, the chemical purity of QTX125 was measured by HPLC.
(§3) The following index is provided to aid navigation of the data presented in Tables 3.1.1 to 3.3.6: • 3.1.x—Assessment of the photostability of QTX125 Form 2. • 3.2.x—Assessment of the photostability of amorphous QTX125. • 3.3.x—Assessment of the photostability of the QTX125 1:2 L-Lysine adduct. • 3.x.1—Samples (at solid state) stored in unsealed clear glass bottles, subject to forced illumination. • 3.x.2—Samples (at solid state) sealed under nitrogen in clear glass bottles, subject to forced illumination. • 3.x.3—Samples (at solid state) sealed under nitrogen in amber glass bottles, illuminated under ambient laboratory conditions • 3.x.4—Samples (at solid state) sealed under nitrogen in amber glass bottles, subject to forced illumination. • 3.x.5—Samples (in solution) sealed under nitrogen in amber glass bottles, illuminated under ambient laboratory conditions. • 3.x.6—Samples (in solution) sealed under nitrogen in amber glass bottles, subject to forced illumination.

[8] = Photostability in solution (THF and water), HPLC; format: physicochemical; conditions: in solution (THF and water), sealed under nitrogen in amber glass bottles; for degradation (in words): up to 171 hours
Description: as §1, §2, §3

[9] = sealed under nitrogen in amber glass bottles, ambient laboratory conditions, 0 hours
[10] = sealed under nitrogen in amber glass bottles, ambient laboratory conditions, 3 hours
[11] = sealed under nitrogen in amber glass bottles, ambient laboratory conditions, 50 hours
[12] = sealed under nitrogen in amber glass bottles, ambient laboratory conditions, 171 hours
[13] = sealed under nitrogen in amber glass bottles, ambient laboratory conditions, 171 hours, listed as Amorphous
[14] = sealed under nitrogen in amber glass bottles, forced illumination, 0 hours
[15] = sealed under nitrogen in amber glass bottles, forced illumination, 3 hours
[16] = sealed under nitrogen in amber glass bottles, forced illumination, 50 hours
[17] = sealed under nitrogen in amber glass bottles, forced illumination, 171 hours
[18] = sealed under nitrogen in amber glass bottles, forced illumination, 171 hours, listed as Amorphous
[19] = sealed under nitrogen in clear glass bottles, forced illumination
[20] = sealed under nitrogen in clear glass bottles, forced illumination, 0 hours
[21] = sealed under nitrogen in clear glass bottles, forced illumination, 3 hours
[22] = sealed under nitrogen in clear glass bottles, forced illumination, 50 hours
[23] = sealed under nitrogen in clear glass bottles, forced illumination, 171 hours
[24] = unsealed clear glass bottles, forced illumination
[25] = unsealed clear glass bottles, forced illumination, 0 hours
[26] = unsealed clear glass bottles, forced illumination, 3 hours
[27] = unsealed clear glass bottles, forced illumination, 50 hours
[28] = unsealed clear glass bottles, forced illumination, 171 hours
[29] = ambient laboratory conditions, 0 hours
[30] = ambient laboratory conditions, 3 hours
[31] = ambient laboratory conditions, 50 hours
[32] = ambient laboratory conditions, 171 hours
[33] = ambient laboratory conditions, 171 hours, listed as Amorphous
[34] = forced illumination, 171 hours, listed as Amorphous

Compound: O=C(NO)c1ccc(CNC(=O)c2[nH]c(-c3ccc(O)cc3)cc2-c2ccoc2)cc1 [QTX125, 3-(3-furyl)-N-{4-[(hydroxyamino)carbonyl]benzyl}-5-(4-hydroxyphenyl)-1H-pyrrole-2-carboxamide]
- antitumoral efficacy [1]: high antitumoral efficacy
- HDAC 6 inhibition (in words) (HDAC 6): highly selective and highly potent
- efficacy in multiple sclerosis models [2]: high efficacy
- pharmacokinetic properties: half-lives and distribution volumes [3]: higher half-lives and distribution volumes
- genotoxicity, in particular clastogenicity or aneugenicity [4]: no evidence of genotoxicity
- physical and chemical stability in solution [5]: physical and chemical instability
- solubility in water [6]: very low solubility

Compound: O=C(NO)c1ccc(CNC(=O)c2[nH]c(-c3ccc(O)cc3)cc2-c2ccoc2)cc1 [amorphous QTX125, 3-(3-Furyl)-N-{4-[(hydroxyamino)carbonyl]benzyl}-5-(4-hydroxyphenyl)-1H-pyrrole-2-carboxamide]
- HPLC peak area, QTX125 RRT 1.00 [7, 9]: 96.74%
- HPLC peak area, RRT 1.04 [7, 9]: 1.32%
- HPLC peak area, RRT 1.12 [7, 9]: 0.35%
- HPLC peak area, QTX125 RRT 1.00 [7, 10]: 96.75%
- HPLC peak area, RRT 1.04 [7, 10]: 1.26%
- HPLC peak area, RRT 1.12 [7, 10]: 0.36%
- HPLC peak area, QTX125 RRT 1.00 [7, 11]: 96.61%
- HPLC peak area, RRT 1.04 [7, 11]: 0.71%
- HPLC peak area, RRT 1.12 [7, 11]: 0.39%
- HPLC peak area, QTX125 RRT 1.00 [7, 12]: 96.16%
- HPLC peak area, RRT 1.04 [7, 12]: 1.46%
- HPLC peak area, RRT 1.12 [7, 12]: 0.39%
- HPLC peak area, QTX125 RRT 1.00 [7, 13]: 96.16%
- HPLC peak area, RRT 1.04 [7, 13]: 1.46%
- degradation (in words) ([7]; sealed under nitrogen in amber glass bottles, ambient laboratory conditions): evidence of slight degradation
- HPLC peak area, QTX125 RRT 1.00 [7, 14]: 96.74%
- HPLC peak area, RRT 1.04 [7, 14]: 1.32%
- HPLC peak area, RRT 1.12 [7, 14]: 0.35%
- HPLC peak area, QTX125 RRT 1.00 [7, 15]: 96.94%
- HPLC peak area, RRT 1.04 [7, 15]: 1.04%
- HPLC peak area, RRT 1.12 [7, 15]: 0.35%
- HPLC peak area, QTX125 RRT 1.00 [7, 16]: 96.12%
- HPLC peak area, RRT 1.04 [7, 16]: 1.09%
- HPLC peak area, RRT 1.12 [7, 16]: 0.38%
- HPLC peak area, QTX125 RRT 1.00 [7, 17]: 94.43%
- HPLC peak area, RRT 1.04 [7, 17]: 1.70%
- HPLC peak area, RRT 1.12 [7, 17]: 0.47%
- HPLC peak area, QTX125 RRT 1.00 [7, 18]: 94.43%
- HPLC peak area, RRT 1.04 [7, 18]: 1.70%
- HPLC peak area, RRT 1.12 [7, 18]: 0.47%
- degradation (in words) ([7]; sealed under nitrogen in amber glass bottles, forced illumination): degrades slightly
- colour change of the solid material [7, 19]: change in colour from off white/beige to brown
- HPLC peak area, QTX125 RRT 1.00 [7, 20]: 96.74%
- HPLC peak area, RRT 1.04 [7, 20]: 1.32%
- HPLC peak area, RRT 1.12 [7, 20]: 0.35%
- HPLC peak area, QTX125 RRT 1.00 [7, 21]: 95.97%
- HPLC peak area, RRT 1.04 [7, 21]: 1.51%
- HPLC peak area, RRT 1.12 [7, 21]: 0.38%
- HPLC peak area, QTX125 RRT 1.00 [7, 22]: 89.64%
- HPLC peak area, RRT 1.04 [7, 22]: 4.38%
- HPLC peak area, RRT 1.12 [7, 22]: 0.60%
- HPLC peak area, QTX125 RRT 1.00 [7, 23]: 84.46%
- HPLC peak area, RRT 1.04 [7, 23]: 6.61%
- HPLC peak area, RRT 1.12 [7, 23]: 0.90%
- degradation (in words) [7, 19]: degrades under forced illumination to two principal components
- colour change of the solid material [7, 24]: change in colour from off white/beige to brown
- HPLC peak area, QTX125 RRT 1.00 [7, 25]: 96.74%
- HPLC peak area, RRT 1.04 [7, 25]: 1.32%
- HPLC peak area, RRT 1.12 [7, 25]: 0.35%
- HPLC peak area, QTX125 RRT 1.00 [7, 26]: 95.81%
- HPLC peak area, RRT 1.04 [7, 26]: 1.61%
- HPLC peak area, RRT 1.12 [7, 26]: 0.39%
- HPLC peak area, QTX125 RRT 1.00 [7, 27]: 88.70%
- HPLC peak area, RRT 1.04 [7, 27]: 4.64%
- HPLC peak area, RRT 1.12 [7, 27]: 0.63%
- HPLC peak area, QTX125 RRT 1.00 [7, 28]: 83.01%
- HPLC peak area, RRT 1.04 [7, 28]: 7.15%
- HPLC peak area, RRT 1.12 [7, 28]: 0.90%
- degradation (in words) [7, 24]: degrades under forced illumination to two principal components
- HPLC peak area, QTX125 RRT 1.00 [8, 29]: 96.74%
- HPLC peak area, RRT 1.04 [8, 29]: 1.32%
- HPLC peak area, RRT 1.12 [8, 29]: 0.35%
- HPLC peak area, QTX125 RRT 1.00 [8, 30]: 92.10%
- HPLC peak area, RRT 1.04 [8, 30]: 0.94%
- HPLC peak area, RRT 1.12 [8, 30]: 0.48%
- HPLC peak area, QTX125 RRT 1.00 [8, 31]: 95.89%
- HPLC peak area, RRT 1.04 [8, 31]: 1.03%
- HPLC peak area, RRT 1.12 [8, 31]: 0.54%
- HPLC peak area, QTX125 RRT 1.00 [8, 32]: 91.98%
- HPLC peak area, RRT 1.04 [8, 32]: 2.30%
- HPLC peak area, RRT 1.12 [8, 32]: 1.14%
- HPLC peak area, QTX125 RRT 1.00 [8, 33]: 91.98%
- HPLC peak area, RRT 1.04 [8, 33]: 2.30%
- HPLC peak area, RRT 1.12 [8, 33]: 1.14%
- degradation (in words) ([8]; ambient laboratory conditions): degrades
- HPLC peak area, QTX125 RRT 1.00 ([8]; forced illumination, 0 hours): 96.74%
- HPLC peak area, RRT 1.04 ([8]; forced illumination, 0 hours): 1.32%
- HPLC peak area, RRT 1.12 ([8]; forced illumination, 0 hours): 0.35%
- HPLC peak area, QTX125 RRT 1.00 ([8]; forced illumination, 3 hours): 96.31%
- HPLC peak area, RRT 1.04 ([8]; forced illumination, 3 hours): 0.92%
- HPLC peak area, RRT 1.12 ([8]; forced illumination, 3 hours): 0.46%
- HPLC peak area, QTX125 RRT 1.00 ([8]; forced illumination, 50 hours): 94.55%
- HPLC peak area, RRT 1.04 ([8]; forced illumination, 50 hours): 1.27%
- HPLC peak area, RRT 1.12 ([8]; forced illumination, 50 hours): 0.55%
- HPLC peak area, QTX125 RRT 1.00 ([8]; forced illumination, 171 hours): 87.29%
- HPLC peak area, RRT 1.04 ([8]; forced illumination, 171 hours): 2.33%
- HPLC peak area, RRT 1.12 ([8]; forced illumination, 171 hours): 1.03%
- HPLC peak area, QTX125 RRT 1.00 [8, 34]: 87.29%
- HPLC peak area, RRT 1.04 [8, 34]: 2.33%
- HPLC peak area, RRT 1.12 [8, 34]: 1.03%
- degradation (in words) ([8]; forced illumination): degrades
